For the experiment, the target named is T1, α7-subtype of nicotinic receptors (Rattus norvegicus, UniProt Q05941).
T1 construct: Cerebral cortices from male Wistar rats (150-250 g) are homogenised; from tissue; host or cells: rat cerebral cortex membrane homogenate (male Wistar rats)
Kind of experiment: In vitro inhibition of 3H-α-bungarotoxine binding in rat brain. The conditions noted are these: rat cerebral cortex homogenate; 3H-α-bungarotoxine 2 nM; 2 hours at 37° C.

The text below walks through data of patent publication US7332507B2, “3-substituted quinuclidines and their use” (Neurosearch A/S, priority 2002, dated 2008).

Where a name gives a salt, the structure may show the parent alone.

T1 sequence (Q05941 23-502): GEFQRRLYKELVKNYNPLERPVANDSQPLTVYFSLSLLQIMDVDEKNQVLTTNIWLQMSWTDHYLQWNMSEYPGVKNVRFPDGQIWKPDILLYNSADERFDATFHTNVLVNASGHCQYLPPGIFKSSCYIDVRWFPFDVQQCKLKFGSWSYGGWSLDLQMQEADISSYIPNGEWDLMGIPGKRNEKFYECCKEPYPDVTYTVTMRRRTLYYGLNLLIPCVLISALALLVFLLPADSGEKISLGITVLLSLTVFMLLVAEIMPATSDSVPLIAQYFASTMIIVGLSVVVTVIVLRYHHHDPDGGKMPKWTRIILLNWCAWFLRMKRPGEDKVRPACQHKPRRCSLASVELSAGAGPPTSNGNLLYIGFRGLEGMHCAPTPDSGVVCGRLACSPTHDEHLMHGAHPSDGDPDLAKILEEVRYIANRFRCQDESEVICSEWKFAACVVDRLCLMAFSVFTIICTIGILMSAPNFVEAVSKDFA

`c1ccc2c(c1)ncn2C1CN2CCC1CC2` (racemic) [Compound A1, (±)-3-(1-Benzimidazolyl)-quinuclidine fumaric acid salt] registered an IC50 of 400 nM.
